The values that follow come from publication doi:10.1101/2020.09.15.275891v2 (biorxiv, 2020).

The target in data set [1] is mature MHV M^pro (Murine hepatitis virus strain A59, UniProt P0C6X9). As to the kind of experiment: fluorogenic peptide cleavage. Type of data set: biochemical.
A short description of data set [2]: in vitro. The conditions noted are these: human, caco-2 cells.
Data set [3] addresses mature SARSCoV2 M^pro (Severe acute respiratory syndrome coronavirus 2, UniProt P0DTD1). As to the kind of experiment: biochemical.

Sequence of mature MHV M^pro (P0C6X9 3334-3635): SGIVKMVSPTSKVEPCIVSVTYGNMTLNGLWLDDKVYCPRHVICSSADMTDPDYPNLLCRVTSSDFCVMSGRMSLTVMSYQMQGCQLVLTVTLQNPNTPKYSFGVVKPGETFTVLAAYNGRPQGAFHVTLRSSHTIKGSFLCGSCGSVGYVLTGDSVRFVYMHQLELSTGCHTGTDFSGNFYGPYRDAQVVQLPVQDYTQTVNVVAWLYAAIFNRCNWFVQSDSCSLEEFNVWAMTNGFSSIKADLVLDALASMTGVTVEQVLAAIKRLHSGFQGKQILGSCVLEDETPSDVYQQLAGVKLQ

In general, IC50 refers to the midpoint of a concentration-inhibition curve. Low readings indicate inhibition by little substance, high ones a need for much substance. The CC50 is the concentration giving 50% cytotoxicity. Read a high CC50 as lower toxicity to the cells. With `CC(C)(C)NC(=O)N[C@H](C(=O)N1C[C@H]2[C@@H]([C@H]1C(=O)N[C@@H](C[C@@H]1CCNC1=O)C(=O)C(N)=O)C2(C)C)C(C)(C)C` [ML1000], in data set [1], the half-maximal inhibitory concentration (IC50) is 0.13 ± 0.025 µM. In addition, the CC50 in data set [2] is over 100 µM.
On to `CC(C)(C)NC(=O)N[C@H](C(=O)N1C[C@H]2[C@@H]([C@H]1C(=O)NC(CC1CCC1)C(=O)C(N)=O)C2(C)C)C(C)(C)C` (some centres unmarked) [boceprevir], for which, in data set [1], it took 15 ± 7 µM to reach half-maximal inhibition (IC50). The compound also registered a CC50 in data set [2] of over 100 µM.
For the compound `CC(C)C[C@H](NC(=O)OCc1ccccc1)C(=O)N[C@@H](C[C@@H]1CCNC1=O)C(O)S(=O)(=O)O` (some centres unmarked) [GC-376], in data set [2], the CC50 is over 100 µM.
For the compound `CC(C)(C)NC(=O)N[C@H](C(=O)N1C[C@@H]2CCC[C@@H]2[C@H]1C(=O)N[C@@H](C[C@@H]1CCNC1=O)C(=O)C(N)=O)C(C)(C)C` [ML1100], the IC50 in data set [1] is 0.301 ± 0.152 µM; in data set [3] it was 0.147 ± 0.008 µM. In data set [2], this compound showed a CC50 of over 100 µM.
